Target: skeletal myofibrils (myosin ATPase)
Experiment: Skeletal Myofibril ATPase Assay
Format: biochemical
Conditions: Table 4A
Method: Example 12. Skeletal Myofibril ATPase Assay
Overview: Myosin ATPase activity is assessed by using a coupled reaction system, in which ADP generated by the myosin ATPase function is coupled to the disappearance of NADH through the pyruvate kinase/lactate dehydrogenase (PK-LDH) system. ATPase activity produces ADP, which is used as a substrate for PK to produce pyruvate and regenerate ATP. The pyruvate is then used as a substrate by LDH to oxidize NADH to NAD+. The rate of the reaction is monitored through the time-dependent disappearance of NADH using absorbance at 340 nm. Inhibition of ATPase activity by the assayed compounds is indicated by a reduced rate of NADH loss, relative to vehicle-treated controls, over the experimental time window. To assess the selectivity of the assayed compounds for skeletal myofibrils, the compounds are counter-screened in cardiac myofibrils.
Materials: The following stock solutions and reagents were used in the Skeletal Myofibril ATPase Assay:
Stock Solutions of pCa buffer. Combine PIPES, CaCl2, and EGTA solutions with 70 mL of water. Adjust pH to 7.0 and bring final volume to 100 mL.
Buffer A & Buffer B. Buffers were stored on ice until use.
Skeletal Myofibril ATPase Assay Procedure: BSA, ATP, NADH, PEP, and DTT solutions were thawed at room temperature, then transferred to ice. Pellet-frozen myofibrils were transferred with approximately twice the required volume into a sufficiently large tube and capped. Myofibrils were thawed by rolling in a water bath for approximately 15 min at room temperature and cooled on ice. Buffers A and B were prepared by adjusting volumes as necessary for required number of wells and stored on ice. 0.5 μL of the compounds to be assayed were added into wells. 25 μL of Buffer A was dispensed into the wells, followed by 25 μL of Buffer B. The wells were measured for absorbance at 340 nm, using a kinetic protocol in which the wells are read every 1.5-2 min for 45 min. The slope of the data was approximated by subtracting the minimum absorbance value from the maximum value for each well. This was accomplished either in the SoftMax Pro software or in a spreadsheet program such as Excel. Using GraphPad Prism 8.0, the data was normalized by assigning a value of 100% to the 1% DMSO vehicle wells. Typically, a normalized 0% value was simply assigned to a (Max−Min) value of 0. The normalized data was fit to a Four Parameter Logistic sigmoidal equation, constraining the bottom to be 0 or greater. Compounds of Table 1, 2, and 3 were tested and results of the assay appear in Tables 4a-4c. A=IC50 is less than or equal to 10 μM; B═IC50 is greater than 10 μM and less than 100 μM; C═IC50 is greater than 100 μM.

| IC50 | SMILES |
| --- | --- |
| < 10 µM | O=C(Cn1nc(-c2ccc(OC(F)F)nc2)ccc1=O)NCc1ccccc1Cl [Compound I-69, N-(2-chlorobenzyl)-2-(3-(6-(difluoromethoxy)pyridin-3-yl)-6-oxopyridazin-1(6H)-yl)acetamide] |
| < 10 µM | O=C(Cn1nc(-c2ccc(OC(F)F)nc2)ccc1=O)NCc1ccc(Cl)cc1 [Compound I-70, N-(4-chlorobenzyl)-2-(3-(6-(difluoromethoxy)pyridin-3-yl)-6-oxopyridazin-1(6H)-yl)acetamide] |
| < 10 µM | O=C(Cn1nc(-c2cnc(OCC(F)(F)F)nc2)ccc1=O)NC1CCC1 [Compound I-71, N-cyclobutyl-2-(6-oxo-3-(2-(2,2,2-trifluoroethoxy)pyrimidin-5-yl)pyridazin-1(6H)-yl)acetamide] |
| < 10 µM | O=C(Cn1nc(-c2cnc(OCCOC(F)(F)F)nc2)ccc1=O)NC1CCC1 [Compound I-72, N-cyclobutyl-2-(6-oxo-3-(2-(2-(trifluoromethoxy)ethoxy)pyrimidin-5-yl)pyridazin-1(6H)-yl)acetamide] |
| < 10 µM | CCCOc1ncc(-c2ccc(=O)n(CC(=O)NC3CCC3)n2)cn1 [Compound I-73, N-cyclobutyl-2-(6-oxo-3-(2-propoxypyrimidin-5-yl)pyridazin-1(6H)-yl)acetamide] |
| 10 to 100 µM | CCNC(=O)Cn1nc(-c2ccc(NC3CC(F)(F)C3)nc2)ccc1=O [Compound I-74, 2-(3-(6-((3,3-difluorocyclobutyl)amino)pyridin-3-yl)-6-oxopyridazin-1(6H)-yl)-N-ethylacetamide] |
| 10 to 100 µM | O=C(Cn1nc(-c2ccc(OC(F)F)nc2)ccc1=O)NCc1cccc(Cl)c1 [Compound I-76, N-(3-chlorobenzyl)-2-(3-(6-(difluoromethoxy)pyridin-3-yl)-6-oxopyridazin-1(6H)-yl)acetamide] |
| 10 to 100 µM | CCNC(=O)Cn1nc(-c2cnc(OCC3CC(F)(F)C3)nc2)ccc1=O [Compound I-77, 2-(3-(2-((3,3-difluorocyclobutyl)methoxy)pyrimidin-5-yl)-6-oxopyridazin-1(6H)-yl)-N-ethylacetamide] |
| 10 to 100 µM | CCNC(=O)Cn1nc(-c2cnc(Oc3ccc(Cl)cc3)nc2)ccc1=O [Compound I-78, 2-(3-(2-(4-chlorophenoxy)pyrimidin-5-yl)-6-oxopyridazin-1(6H)-yl)-N-ethylacetamide] |
| > 100 µM | CC(C)COc1ncc(-c2ccc(=O)n(CC(=O)NC3CCC3)n2)cn1 [Compound I-79, N-cyclobutyl-2-[3-[2-(2-methylpropoxy)pyrimidin-5-yl]-6-oxopyridazin-1-yl]acetamide] |

| SMILES | IC50 |
| --- | --- |
| CCNC(=O)Cn1nc(-c2ccc(OC3CC(F)(F)C3)nc2)ccc1=O [Compound I-75, 2-(3-(6-(3,3-difluorocyclobutoxy)pyridin-3-yl)-6-oxopyridazin-1(6H)-yl)-N-ethylacetamide] | 10 to 100 µM |

Same assay, conditions: Table 4B

| IC50 | SMILES |
| --- | --- |
| < 10 µM | CCNC(=O)Cn1nc(-c2ccc(OC(C)(F)F)cc2)ccc1=O [II-1, 2-(3-(4-(1,1-difluoroethoxy)phenyl)-6-oxopyridazin-1(6H)-yl)-N-ethylacetamide] |
| < 10 µM | CCNC(=O)Cn1nc(-c2ccc(NC(C)=O)cc2)ccc1=O [II-2, 2-(3-(4-acetamidophenyl)-6-oxopyridazin-1(6H)-yl)-N-ethylacetamide] |
| < 10 µM | O=C(Cn1nc(-c2ccc(OC(F)F)cc2)ccc1=O)NCc1ccccc1Cl [II-3, N-(2-chlorobenzyl)-2-(3-(4-(difluoromethoxy)phenyl)-6-oxopyridazin-1(6H)-yl)acetamide] |
| < 10 µM | CC(C)NC(=O)Cn1nc(-c2ccc(OC(F)(F)F)cc2)ccc1=O [II-4, N-isopropyl-2-(6-oxo-3-(4-(trifluoromethoxy)phenyl)pyridazin-1(6H)-yl)acetamide] |
| < 10 µM | CCNC(=O)Cn1nc(-c2ccc(OC(F)(F)F)cc2)ccc1=O [II-5, N-ethyl-2-(6-oxo-3-(4-(trifluoromethoxy)phenyl)pyridazin-1(6H)-yl)acetamide] |
| < 10 µM | CCNC(=O)Cn1nc(-c2ccc(OCC(F)(F)F)cc2)ccc1=O [II-6, N-ethyl-2-(6-oxo-3-(4-(2,2,2-trifluoroethoxy)phenyl)pyridazin-1(6H)-yl)acetamide] |
| < 10 µM | CCNC(=O)Cn1nc(-c2ccc(OCC(F)F)cc2)ccc1=O [II-7, 2-(3-(4-(2,2-difluoroethoxy)phenyl)-6-oxopyridazin-1(6H)-yl)-N-ethylacetamide] |
| < 10 µM | CC(=O)Nc1ccc(-c2ccc(=O)n(CC(=O)NCc3ccccc3Cl)n2)cc1 [II-8, 2-(3-(4-acetamidophenyl)-6-oxopyridazin-1(6H)-yl)-N-(2-chlorobenzyl) acetamide] |
| < 10 µM | O=C(Cn1nc(-c2ccc(OC(F)F)cc2)ccc1=O)NC1CCC1 [II-9, N-cyclobutyl-2-(3-(4-(difluoromethoxy)phenyl)-6-oxopyridazin-1(6H)-yl)acetamide] |
| < 10 µM | CCNC(=O)Cn1nc(-c2ccc(OC(F)F)cc2)ccc1=O [II-10, 2-(3-(4-(difluoromethoxy)phenyl)-6-oxopyridazin-1(6H)-yl)-N-ethylacetamide] |
| 10 to 100 µM | O=C(Cn1nc(-c2ccc(OC(F)F)cc2)ccc1=O)NCC(F)(F)F [II-11, 2-(3-(4-(difluoromethoxy)phenyl)-6-oxopyridazin-1(6H)-yl)-N-(2,2,2-trifluoroethyl) acetamide] |
| 10 to 100 µM | CCCNC(=O)Cn1nc(-c2ccc(OC(F)F)cc2)ccc1=O [II-12, 2-(3-(4-(difluoromethoxy)phenyl)-6-oxopyridazin-1(6H)-yl)-N-propylacetamide] |
| 10 to 100 µM | CC(C)CNC(=O)Cn1nc(-c2ccc(OC(F)F)cc2)ccc1=O [II-13, 2-(3-(4-(difluoromethoxy)phenyl)-6-oxopyridazin-1(6H)-yl)-N-isobutylacetamide] |
| 10 to 100 µM | CC(=O)Nc1ccc(-c2ccc(=O)n(CC(=O)NC(C)C)n2)cc1 [II-14, 2-(3-(4-acetamidophenyl)-6-oxopyridazin-1(6H)-yl)-N-isopropylacetamide] |
| 10 to 100 µM | O=C(Cn1nc(-c2ccc(OC(F)F)cc2)ccc1=O)NCC(F)F [II-15, N-(2,2-difluoroethyl)-2-(3-(4-(difluoromethoxy)phenyl)-6-oxopyridazin-1(6H)-yl)acetamide] |
| 10 to 100 µM | CC(C)(C)NC(=O)Cn1nc(-c2ccc(OC(F)F)cc2)ccc1=O [II-16, N-(tert-butyl)-2-(3-(4-(difluoromethoxy)phenyl)-6-oxopyridazin-1(6H)-yl)acetamide] |
| 10 to 100 µM | CCCCNC(=O)Cn1nc(-c2ccc(OC(F)F)cc2)ccc1=O [II-17, N-butyl-2-(3-(4-(difluoromethoxy)phenyl)-6-oxopyridazin-1(6H)-yl)acetamide] |
| 10 to 100 µM | O=C(Cn1nc(-c2ccc(OC(F)F)cc2)ccc1=O)NCC1CCC1 [II-18, N-(cyclobutylmethyl)-2-(3-(4-(difluoromethoxy)phenyl)-6-oxopyridazin-1(6H)-yl)acetamide] |
| 10 to 100 µM | CCNC(=O)Cn1nc(-c2ccc(OC(F)F)cc2)c(C)cc1=O [II-19, 2-(3-(4-(difluoromethoxy)phenyl)-4-methyl-6-oxopyridazin-1(6H)-yl)-N-ethylacetamide] |
| > 100 µM | O=C(Cn1nc(-c2ccc(OCC(F)(F)F)cc2)ccc1=O)NCc1ccc(O)nc1 [II-20, N-((6-hydroxypyridin-3-yl)methyl)-2-(6-oxo-3-(4-(2,2,2-trifluoroethoxy)phenyl)pyridazin-1(6H)-yl)acetamide] |
| > 100 µM | CCNC(=O)Cn1nc(-c2ccc(OC(F)F)cc2)cc(C)c1=O [II-21, 2-(3-(4-(difluoromethoxy)phenyl)-5-methyl-6-oxopyridazin-1(6H)-yl)-N-ethylacetamide] |
| < 10 µM | O=C(Cn1nc(-c2ccc(OCC(F)(F)F)cc2)ccc1=O)N1CC(c2ccccc2)C1 [II-22, 2-(2-oxo-2-(3-phenylazetidin-1-yl)ethyl)-6-(4-(2,2,2-trifluoroethoxy)phenyl)pyridazin-3(2H)-one] |
| < 10 µM | O=C(Cn1nc(-c2ccc(OCC(F)(F)F)cc2)ccc1=O)N1CCC1c1ccccc1 (centres unmarked) [II-23, 2-(2-oxo-2-(2-phenylazetidin-1-yl)ethyl)-6-(4-(2,2,2-trifluoroethoxy)phenyl)pyridazin-3(2H)-one] |
| > 100 µM | O=C(Cn1nc(-c2ccc(OCC(F)(F)F)cc2)ccc1=O)NCc1ccc(CO)cc1 [II-24, N-(4-(hydroxymethyl)benzyl)-2-(6-oxo-3-(4-(2,2,2-trifluoroethoxy)phenyl)pyridazin-1(6H)-yl)acetamide] |

— patent US20230293518A1 (Edgewise Therapeutics, Inc., priority 2020, published 2023)
